In US11541132B2, “Radiolabeled compounds” (Hoffmann-La Roche Inc., priority 2017, dated 2023) one finds inhibition data, which are given here for 32 molecules.

Assay [1] addresses T1, native aSyn aggregates in A30P transgenic mouse brain sections (Homo sapiens, UniProt P37840, A30P).
T1 construct: from tissue; host or cells: brain sections (midbrain and pons as ROI) of A30P transgenic mice, line B6.D2-Tg(Thy1-SNCA*30P)31Pjk
The assay can be described thus: aSyn in vitro displacement assay ([3H]Example-3 autoradiography). It is filed as binding, mutant human aSyn gene). To be noted: 3 nM [3H]Example-3, A30P transgenic mouse brain sections; for inhibition at 1 µM: 1 μM compound, read-out: PCT_INHIB A30P @ 1 μM (% displacement of [3H]Example-3). Background: Loss of bound radioactivity is the signal in a displacement assay; it reports binding, not function.

Assay [2] has as its target T2, native Aβ aggregates in human AD brain tissue sections (Homo sapiens, UniProt P05067).
T2 construct: native Aβ aggregates in human AD brain tissue samples; from tissue; host or cells: human AD brain tissue sections
Kind of assay: Aβ in vitro displacement assay (selectivity counterscreen, [3H]Example 3 autoradiography). The settings on record: 3 nM [3H]Example 3, human AD brain sections; for inhibition at 1 µM: 1 μM compound, read-out: sel. counterscreen PCT_INHIB AD @ 1 μM (% displacement of [3H]Example 3). It is filed as binding.

T2 sequence (P05067 672-713 limits assumed): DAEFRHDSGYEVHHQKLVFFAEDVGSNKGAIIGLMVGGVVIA

On to `O=C(Nc1ccc(N2CCN(c3ccccn3)CC2)cc1)c1ccc(OCCOCCO)cc1` [Example 137, 4-(2-(2-Hydroxyethoxy)ethoxy)-N-(4-(4-(pyridin-2-yl)piperazin-1-yl)phenyl)benzamide], for which the inhibition at 1 µM in assay [1] amounted to 80%; in assay [2], 92%.

As for `Cc1ccc(C(=O)Nc2ccc(N3CCN(c4ccccn4)CC3)cc2)cc1` [Example 5, 4-Methyl-N-(4-(4-(pyridin-2-yl)piperazin-1-yl)phenyl)benzamide], the results for the inhibition at 1 µM in assay [1] and in assay [2] were 99% and 102%, respectively.

With `COc1ccc(C(=O)Nc2ccc(N3CCN(c4cccnc4)CC3)cc2)nc1` [Example 77, 5-Methoxy-N-(4-(4-(pyridin-3-yl)piperazin-1-yl)phenyl)picolinamide], the inhibition at 1 µM in assay [1] came to 98%; in assay [2] it was 96%.

For `COc1ccc(C(=O)Nc2ccc(N3CCN(c4ccc(C#N)c(F)c4)CC3)cc2)cc1` [Example 150, N-(4-(4-(4-Cyano-3-fluorophenyl)piperazin-1-yl)phenyl)-4-methoxybenzamide], the inhibition at 1 µM in assay [1] worked out at 98%; in assay [2], 94%.

For `COc1ccc(C(=O)Nc2ccc(N3CCN(c4ccccn4)CC3)cn2)c(C)c1` [Example 80, 4-Methoxy-2-methyl-N-[5-(4-pyridin-2-ylpiperazin-1-yl)pyridin-2-yl]benzamide], the inhibition at 1 µM in assay [1] was found to be 90%; in assay [2], 94%.

As for `CN(C)c1ccc(C(=O)Nc2cnc(N3CCN(c4ccccn4)CC3)cn2)cc1` [Example 86, 4-(Dimethylamino)-N-(5-(4-(pyridin-2-yl)piperazin-1-yl)pyrazin-2-yl)benzamide], the results for the inhibition at 1 µM in assay [1] and in assay [2] were 95% and 100%, respectively.

Consider `O=C(Nc1ccc(N2CCN(c3ccccn3)CC2)nn1)c1ccc(N2CCOCC2)cc1` [Example 48, 4-Morpholino-N-[6-[4-(2-pyridyl)piperazin-1-yl]pyridazin-3-yl]benzamide], for which the inhibition at 1 µM in assay [1] came to 97%; in assay [2], 93%.

For `O=C(Nc1ccc(N2CCN(c3cccs3)CC2)cc1)c1ccc(N2CCOCC2)cc1` [Example 94, 4-Morpholino-N-(4-(4-(thiophen-2-yl)piperazin-1-yl)phenyl)benzamide], the results for the inhibition at 1 µM in assay [1] and in assay [2] were 81% and 93%, respectively.

For `O=C(Nc1ccc(N2CCN(c3nccs3)CC2)cc1)c1ccc(OCCF)cc1` [Example 119, 4-(2-Fluoroethoxy)-N-[4-(4-thiazol-2-ylpiperazin-1-yl)phenyl]benzamide], the values for the inhibition at 1 µM in assay [1] and in assay [2] were 83% and 89%, respectively.

For the molecule `O=C(Nc1ccc(N2CCN(c3ccccn3)CC2)cc1)c1ccccc1F` [Example 9, 2-Fluoro-N-(4-(4-(pyridin-2-yl)piperazin-1-yl)phenyl)benzamide], the inhibition at 1 µM amounted to 82% in assay [1] and 96% in assay [2].

For the molecule `COc1ccc(C(=O)Nc2ccc(N3CCN(c4ccc(C#N)cn4)CC3)cc2)cn1` [Example 171, N-(4-(4-(5-Cyanopyridin-2-yl)piperazin-1-yl)phenyl)-6-methoxynicotinamide], the inhibition at 1 µM in assay [1] worked out at 89%; in assay [2], 92%.

Consider `O=C(Nc1ccc(N2CCN(c3ccccn3)CC2)cn1)c1ccc(N2CCOCC2)cc1` [Example 51, 4-Morpholino-N-(5-(4-(pyridin-2-yl)piperazin-1-yl)pyridin-2-yl)benzamide], for which the inhibition at 1 µM in assay [1] and in assay [2] was 94% each time.

On to `COc1ccc(C(=O)Nc2ccc(N3CCN(c4ncncn4)CC3)cc2)cc1` [Example 55, 4-Methoxy-N-{4-[4-(1,3,5-triazin-2-yl)piperazin-1-yl]phenyl}benzamide], for which the inhibition at 1 µM is 81% in assay [1] and 95% in assay [2].

As to `N#Cc1ccc(C(=O)Nc2ccc(N3CCN(c4ccc(C#N)cn4)CC3)cc2)cc1` [Example 164, 4-Cyano-N-(4-(4-(5-cyanopyridin-2-yl)piperazin-1-yl)phenyl)benzamide], the inhibition at 1 µM is 80% in assay [1] and 90% in assay [2].

On to `COc1ccc(C(=O)Nc2ccc(N3CCN(c4ccc(C#N)cc4)CC3)cc2)cn1` [Example 157, N-(4-(4-(4-Cyanophenyl)piperazin-1-yl)phenyl)-6-methoxynicotinamide], for which the inhibition at 1 µM was 91% in assay [1] and 92% in assay [2].

In the case of `COc1ccc(C(=O)Nc2cnc(N3CCN(c4ccccn4)CC3)nc2)c(C)c1` [Example 72, 4-Methoxy-2-methyl-N-(2-(4-(pyridin-2-yl)piperazin-1-yl)pyrimidin-5-yl)benzamide], the inhibition at 1 µM in assay [1] amounted to 80%; in assay [2] it was 86%.

`COc1ccc(C(=O)Nc2ccc(N3CCN(c4ccc(F)cc4)CC3)cc2)cc1` [Example 105, N-[4-[4-(4-Fluorophenyl)piperazin-1-yl]phenyl]-4-methoxy-benzamide]: the inhibition at 1 µM in assay [1] stood at 100%; in assay [2], 98%.

For `COc1ccc(C(=O)Nc2ccc(N3C[C@@H]4CN(c5ccccn5)C[C@H]4C3)cc2)cc1` [Example 133, 4-Methoxy-N-(4-((3aR,6aR)-5-(pyridin-2-yl)hexahydropyrrolo[3,4-c]pyrrol-2(1H)-yl)phenyl)benzamide], the values for the inhibition at 1 µM in assay [1] and in assay [2] were 85% and 84%, respectively.

Take `COc1ccc(C(=O)Nc2ccc(N3CCN(c4ccccc4F)CC3)cc2)cc1` [Example 71, N-{4-[4-(2-Fluorophenyl)piperazin-1-yl]phenyl}-4-methoxybenzamide]: the values for the inhibition at 1 µM in assay [1] and in assay [2] were 101% and 100%, respectively.

For `COc1ccc(C(=O)Nc2cnc(N3CCN(c4ccccn4)CC3)cn2)c(F)c1` [Example 84, 2-Fluoro-4-methoxy-N-(5-(4-(pyridin-2-yl)piperazin-1-yl)pyrazin-2-yl)benzamide], the inhibition at 1 µM in assay [1] came out at 88%; in assay [2] it was 100%.

On to `COc1ccc(C(=O)Nc2ccc(N3CCN(c4ccccc4OC)CC3)cc2)cc1` [Example 69, 4-Methoxy-N-{4-[4-(2-methoxyphenyl)piperazin-1-yl]phenyl}benzamide], for which the results for the inhibition at 1 µM in assay [1] and in assay [2] were 89% and 86%, respectively.

Regarding `COc1ccc(C(=O)Nc2ccc(N3CCN(c4cccc(F)n4)CC3)cc2)cc1` [Example 146, N-(4-(4-(6-Fluoropyridin-2-yl)piperazin-1-yl)phenyl)-4-methoxybenzamide], the inhibition at 1 µM in assay [1] was 95%; in assay [2] it was 91%.

As for `C#CCOCCOc1ccc(C(=O)Nc2ccc(N3CCN(c4ccc(C#N)cn4)CC3)cc2)cc1` [Example 175, N-[4-[4-(5-Cyano-2-pyridyl)piperazin-1-yl]phenyl]-4-(2-prop-2-ynoxyethoxy)benzamide], the inhibition at 3 µM in assay [1] (3 μM compound, read-out: PCT_INHIB A30P @ 3 μM) was 85%; in assay [2] (3 μM compound, read-out: sel. counterscreen PCT_INHIB AD @ 3 μM) it was 98%.

With `Cc1ccc(C(=O)Nc2ccc(N3CCN(c4ccccn4)CC3)cc2)c(F)c1` [Example 10, 2-Fluoro-4-methyl-N-(4-(4-(pyridin-2-yl)piperazin-1-yl)phenyl)benzamide], the inhibition at 1 µM came to 83% in assay [1] and 81% in assay [2].

In the case of `COC(=O)c1ccc(N2CCN(c3ccc(NC(=O)c4ccc(OC)cc4)cc3)CC2)nc1` [Example 172, Methyl 6-(4-(4-(4-methoxybenzamido)phenyl)piperazin-1-yl)nicotinate], the inhibition at 1 µM in assay [1] came to 93%; in assay [2], 84%.

For the molecule `COc1ccc(C(=O)Nc2ccc(N3CCN(c4ccc(C#N)nc4)CC3)cc2)nc1` [Example 173, N-(4-(4-(6-Cyanopyridin-3-yl)piperazin-1-yl)phenyl)-5-methoxypicolinamide], the inhibition at 1 µM in assay [1] is 83%; in assay [2] it was 82%.

Take `COc1ccc(C(=O)Nc2ccc(N3CCN(c4ccncc4)CC3)cc2)cc1` [Example 41, 4-Methoxy-N-[4-[4-(4-pyridyl)piperazin-1-yl]phenyl]benzamide]: the inhibition at 1 µM amounted to 84% in assay [1] and 90% in assay [2].

Take `Cn1cc(C(=O)Nc2ccc(N3CCN(c4ccc(C#N)cc4)CC3)cc2)cn1` [Example 158, N-(4-(4-(4-Cyanophenyl)piperazin-1-yl)phenyl)-1-methyl-1H-pyrazole-4-carboxamide]: the inhibition at 1 µM in assay [1] was determined as 83%; in assay [2], 87%.

On to `COc1ccc(C(=O)Nc2ccc(N3CCN(c4ccc(C#N)cn4)CC3)cc2)cc1OC` [Example 159, N-(4-(4-(5-Cyanopyridin-2-yl)piperazin-1-yl)phenyl)-3,4-dimethoxybenzamide], for which the inhibition at 1 µM is 88% in assay [1] and 89% in assay [2].

As for `N#Cc1ccc(N2CCN(c3ccc(NC(=O)c4ccc(OCCOCCOCCF)cc4)cc3)CC2)cc1` [Example 123, N-[4-[4-(4-Cyanophenyl)piperazin-1-yl]phenyl]-4-[2-[2-(2-fluoroethoxy)ethoxy]ethoxy]benzamide], the figures for the inhibition at 1 µM in assay [1] and in assay [2] were 80% and 95%, respectively.

Consider `COc1ccc(C(=O)Nc2ccc(N3CCN(c4ccc(C#N)cc4C)CC3)cc2)cc1` [Example 144, N-(4-(4-(4-Cyano-2-methylphenyl)piperazin-1-yl)phenyl)-4-methoxybenzamide], for which the inhibition at 1 µM in assay [1] worked out at 89%; in assay [2], 92%.

Consider `COc1ccc(C(=O)Nc2ccc(N3CCN(c4ccc(C#N)cc4)CC3)c(C)c2)cc1` [Example 112, N-[4-[4-(4-Cyanophenyl)piperazin-1-yl]-3-methyl-phenyl]-4-methoxy-benzamide], for which the figures for the inhibition at 1 µM in assay [1] and in assay [2] were 87% and 74%, respectively.
